Test results from ChEMBL document CHEMBL1135815, “Design, synthesis, and pharmacological evaluation of new farnesyl protein transferase inhibitors” (J Med Chem, 2002).

Key:
[1] = biological target: Protein farnesyltransferase (Homo sapiens, UniProt P49354+P49356); assay: Inhibition of Farnesyltransferase catalyzed transfer of the FPP moiety to dansyl-GCVLS; type: protein-complex assay
[2] = biological target: Geranylgeranyl transferase type I (Homo sapiens, UniProt P49354+P53609); assay: Inhibition of Geranylgeranyl transferase type I (GGPT I) catalyzed transfer of GGPP to dansyl-GCVLL; type: protein-complex assay

IC50 [1]	IC50 [2]	Compound
> 100 µM		COC(=O)[C@H](CCSC)N(C(=O)c1ccccc1)C1CCNCC1
0.034 µM	5.1 µM	CSCCC(NC(=O)[C@H](Cc1ccccc1)NCC[C@@H](C)CNC[C@H](N)CSC)C(=O)O (stereo partly specified)
> 100 µM		COC(=O)[C@H](CCSC)N(C(=O)c1ccccc1)C1CCN(C(=O)[C@H]2CSCN2)CC1
2.14 µM	> 100 µM	COC(=O)[C@H](CCSC)N(C(=O)c1ccccc1)C1CCN(C(=O)[C@@H]2CSCN2)CC1
52.5 µM	> 100 µM	COC(=O)[C@H](CCSC)N(C(=O)c1ccccc1)C1CCN(C(=O)c2cscn2)CC1
41.7 µM	> 100 µM	COC(=O)[C@H](CCSC)N(C(=O)c1ccccc1)C1CCN(Cc2cscn2)CC1
0.02 µM	> 100 µM	COC(=O)[C@H](CCSC)N(C(=O)c1ccccc1)C1CCN(C(=O)C(N)CS)CC1 (stereo partly specified)
16.2 µM	> 100 µM	COC(=O)[C@H](CCSC)N(C(=O)c1ccccc1)C1CCN(Cc2c[nH]cn2)CC1
0.072 µM	> 100 µM	CSCC[C@H](NC(=O)c1ccc(NC(=O)[C@@H](N)CS)cc1)C(=O)O
